Reference: PMC4761914, “Improvement of pyrazolo[3,4-d]pyrimidines pharmacokinetic properties: nanosystem approaches for drug delivery” (Scientific Reports, 2016)
Where two headings read alike, the source gives them in different places.

Columns and labels:
SH-SY5Y NB cells = experiment: Antiproliferative activity / cytotoxicity, Trypan blue assay; format: cell-based; conditions: Homo sapiens
Description: In vitro experiments were carried out using the human NB cell line SH-SY5Y. Cells were purchased from American Type Culture Collection (ATCC, Manassas, VA, USA) and were cultured in DMEM/F12 1:1 medium supplemented with 10% FBS, 2 mM L-glutamine and 10000 units/mL Penicillin/Streptomycin at 37 °C in 5% CO2 atmosphere. In order to determine the antiproliferative effect of drugs (1–4) and nanosystems, SH-SY5Y cells were seeded at 10^5 cells/well density and treated with albumin (PBS solution, pH 7.4) or empty liposomes (0.9% NaCl solution, pH 7.4), compounds encapsulated with albumin (PBS solution, pH 7.4) or liposomes LP-1, LP-3 and LP-4 (0.9% NaCl solution, pH 7.4) and free compounds 1, 3 and 4 (DMSO solution) at increasing concentrations (0.1 μM, 1.0 μM, 10 μM and 50 μM). IC50 determination for LP-2 and compound 2 was performed testing the following concentrations as well: 0.01 μM, 0.05 μM, 0.5 μM and 5 μM. The cultures were maintained at 37 °C in 5% v/v CO2 for 24, 48 and 72 h. Cell number and viability were evaluated using the Bürker chamber, after treatment with Trypan Blue. IC50 was calculated by GraphPad Prism 6.0 software using the best fitting sigmoid curve.

Src = target: Src; design: method as in PMID 25469771, PMID 21050441, PMID 21856155; conditions: cited from earlier work
[1] = design: method as in PMID 25469771, PMID 21050441, PMID 21856155; conditions: cited from earlier work; for PAMPA: pH 7.4, 5 hours, room temperature; for MR (Membrane Retention): percentage of compound unable to reach the acceptor compartment
[2] = design: method as in PMID 25469771, PMID 21050441, PMID 21856155; conditions: percentage of unmodified drug, human liver microsomes, 37 °C, 60 min; cited from earlier work
[3] = H2O, 20 °C, 24 hrs; cited from earlier work
[4] = Entrapment efficiency by HPLC-UV-MS after disruption of nanoparticles; format: physicochemical; conditions: compound encapsulated in albumin nanoparticles
Description: The albumin nanoparticles were prepared by mixing 100 μL of compound solution in EtOH (1 mg/mL) with 900 μL of HSA solution in PBS (pH 7.4, 25 mM) (5 mg/mL)[52]. Cysteine was added up to a final concentration of 5 mg/mL, and the resulting solution was kept at 37 °C, for 45 min. The excess of cysteine was eliminated by dialysis using a cellulose membrane (capacity 60 mL/ft, cut-off 14 kDa, diameter 16 mm, width 25mm). D,L-glyceraldehyde was added to this solution, to a final concentration of 5 μM[53]. The sample was then filtered through a nylon syringe filter with pores of 0.2 μm (Acrodisc 25 mm Syringe Filter) to obtain a sterile solution of the drug-albumin nanoparticles. The concentration of the compound in the final sample was determined by HPLC-UV-MS (HPLC-UV-MS method in the supporting material), after denaturation of the protein by acetonitrile and centrifugation (4500 rpm, 15 min, 4 °C).
The method developed by A.D. Bangham, namely thin layer evaporation, was used for the preparation of LP-1, LP-2, LP-3 and LP-4. Lipids DPPC, Chol and MPEG-2000-DPPE Na (molar ratio 20:10:1) were dissolved in a mixture of CHCl3:MeOH = 3:1 (3 mL, round-bottomed flask). A 1 mM solution of each compound (1, 2, 3, 4) in CHCl3:MeOH = 3:1 was prepared. […] The drug concentration was determined after disruption of liposomes by treatment with ethanol at 40 °C (1:1 = v/v). The compound was extracted and quantified by HPLC-UV-MS (HPLC-UV-MS method in the supporting material). […]
E.E.%c NDd NDd NDd NDd NDd NDd NDd NDd NDd NDd NDd aCalculated on the basis of the total amount of compound dissolved in the organic solvent; bat 37 °C; c at 45°C. dND: compound not detected after filtration 0.2 µm syringe filter. […]
The percentage of entrapment efficacy was calculated with the following equation: […]
where, Fi is the concentration of compound determined in the nano-preparation (evaluated by HPLC-UV-MS, after disruption of nanoparticles) and Ft is the theoretical final concentration (Calculated on the basis of the total amount of compound dissolved in the organic solvent). […]

## CC(Cn1ncc2c(Nc3cccc(Cl)c3)nc(SCCN3CCOCC3)nc21)c1ccccc1 (stereo not shown) [Compound 3]
SH-SY5Y NB cells; 24 h, read-out: IC50 24 h
  IC50: 3.04 ± 0.09 µM
SH-SY5Y NB cells; 48 h, read-out: IC50 48 h
  IC50: 2.65 ± 0.08 µM
SH-SY5Y NB cells; 72 h, read-out: IC50 72 h
  IC50: 1.54 ± 1.07 µM
Src
  Ki: 0.4 µM
[1]
  PAMPA: 5.51 10^−6 cm^2/sec
  MR (Membrane Retention): 48.9%
[2]
  Metabolic Stability: 97.9%
[3]
  Aqueous Solubility: 0,22 μg/mL

## ClC(Cn1ncc2c(Nc3cccc(Br)c3)nc(SCCN3CCOCC3)nc21)c1ccccc1 (stereo not shown) [Compound 2]
[4]
  drug loading: 50%
SH-SY5Y NB cells; 24 h, read-out: IC50 24 h
  IC50: 12.6 ± 1.6 µM
SH-SY5Y NB cells; 48 h, read-out: IC50 48 h
  IC50: 2.66 ± 0.015 µM
SH-SY5Y NB cells; 72 h, read-out: IC50 72 h
  IC50: 2.28 ± 0.29 µM
Src
  Ki: 0.13 µM
[2]
  Metabolic Stability: 96.0%

## CSc1nc(NCc2ccccc2)c2cnn(CC(Cl)c3ccccc3)c2n1 (stereo not shown) [Compound 1]
[4]
  drug loading: around 6%
SH-SY5Y NB cells; 24 h, read-out: IC50 24 h
  IC50: 21.8 ± 1.7 µM
SH-SY5Y NB cells; 48 h, read-out: IC50 48 h
  IC50: 16.5 ± 1.67 µM
SH-SY5Y NB cells; 72 h, read-out: IC50 72 h
  IC50: 13.5 ± 2 µM
[1]
  PAMPA: 3.98 10^−6 cm^2/sec
  MR (Membrane Retention): 46.8%
[2]
  Metabolic Stability: 95.8%
[3]
  Aqueous Solubility: 0,21 μg/mL

## CC(C)Sc1nc(Nc2cccc(O)c2)c2cnn(CC(Cl)c3ccccc3)c2n1 (stereo not shown) [Compound 4]
[4]
  drug loading: 50%
SH-SY5Y NB cells; 24 h, read-out: IC50 24 h
  IC50: 13.6 ± 0.94 µM
SH-SY5Y NB cells; 48 h, read-out: IC50 48 h
  IC50: 10.1 ± 0.5 µM
SH-SY5Y NB cells; 72 h, read-out: IC50 72 h
  IC50: 8.63 ± 0.75 µM
Src
  Ki: 0.01 µM
[1]
  PAMPA: 4.53 10^−6 cm^2/sec
  MR (Membrane Retention): 49.6%
[2]
  Metabolic Stability: 93.5%
[3]
  Aqueous Solubility: 0,90 μg/mL
